Laboratory results from patent US9850225B2, “Compounds useful as immunomodulators” (BRISTOL-MYERS SQUIBB COMPANY, priority 2014, dated 2017).

Biological target: PD-1/PD-L1 interaction (PD-1-Ig / PD-L1-His) (Homo sapiens (Human), UniProt Q9NZQ7)
Test: PD-1/PD-L1 Homogenous Time-Resolved Fluorescence (HTRF) binding assay
Details: PD-1/PD-L1 HTRF binding assay; value given as range class; read-out: Range or IC50
In short: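 HTRF detection used 1 nM europium-cryptate anti-Ig and 20 nM APC anti-His. Compounds first saw 10 nM PD-L1-His for 15 min, and 20 nM PD-1-Ig was then added for another 15 min. Buffer was dPBS plus 0.1% BSA and 0.05% Tween-20. All concentrations are final.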

Sequence of PD-1/PD-L1 interaction (PD-1-Ig / PD-L1-His) (Q9NZQ7 other isoform, or with tags, fused parts or gaps): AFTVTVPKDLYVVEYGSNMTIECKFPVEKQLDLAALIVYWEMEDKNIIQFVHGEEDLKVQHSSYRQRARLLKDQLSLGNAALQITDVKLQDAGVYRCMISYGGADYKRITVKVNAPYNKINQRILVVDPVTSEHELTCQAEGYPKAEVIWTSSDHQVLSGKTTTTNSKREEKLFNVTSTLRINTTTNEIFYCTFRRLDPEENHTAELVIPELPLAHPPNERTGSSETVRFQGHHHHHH

Compound	IC50 [nM]
CC(=O)NCCNCc1ccc(OCc2cccc(-c3ccc4c(c3)OCCO4)c2C)cc1OCc1cc(C#N)ccn1 [Example 1130, N-(2-(2-((4-cyanopyridin-2-yl)methoxy)-4-(3-(2,3-dihydrobenzo[b][1,4]dioxin-6-yl)-2-methylbenzyloxy)benzylamino)ethyl)acetamide]	10 to 100
Cc1c(COc2ccc(CN3CCCC[C@H]3C(=O)O)c(OCc3cc(C#N)ccn3)c2)cccc1-c1ccc2c(c1)OCCO2 [Example 1132, (S)-1-(2-((4-cyanopyridin-2-yl)methoxy)-4-(3-(2,3-dihydrobenzo[b][1,4]dioxin-6-yl)-2-methylbenzyloxy)benzyl)piperidine-2-carboxylic acid]	10 to 100
COc1cc(OCc2cccc(-c3ccccc3)c2C)cc(OCc2cccc(C#N)c2)c1CN[C@@H](C(=O)O)[C@@H](C)O [Example 1138, (2R,3R)-2-((2-((3-cyanobenzyl)oxy)-6-methoxy-4-((2-methyl-[1,1′-biphenyl]-3-yl)methoxy)benzyl)amino)-3-hydroxybutanoic acid]	10 to 100
Cc1c(COc2ccc(CN[C@H](CO)C(=O)O)c(OCCCCC#N)c2)cccc1-c1ccccc1 [Example 1143, (R)-2-((2-(4-cyanobutoxy)-4-((2-methyl-[1,1′-biphenyl]-3-yl)methoxy)benzyl)amino)-3-hydroxypropanoic acid]	0.6 to 10
Cc1c(COc2ccc(CNC[C@@H](O)CC(=O)O)c(OCCCCC#N)c2)cccc1-c1ccccc1 [Example 1144, (S)-4-((2-(4-cyanobutoxy)-4-((2-methyl-[1,1′-biphenyl]-3-yl)methoxy)benzyl)amino)-3-hydroxybutanoic acid]	0.6 to 10
N#Cc1cccc(COc2cc(OCc3cccc(-c4ccc5c(c4)OCCO5)c3Cl)ccc2CN2CCCC[C@H]2C(=O)O)c1 [Example 1145, (S)-1-(4-(2-chloro-3-(2,3-dihydrobenzo[b][1,4]dioxin-6-yl)benzyloxy)-2-(3-cyanobenzyloxyl)benzyl)piperidine-2-carboxylic acid]	10 to 100
N#Cc1cccc(COc2cc(OCc3cccc(-c4ccc5c(c4)OCCO5)c3Cl)ccc2CN[C@H](CO)C(=O)O)c1 [Example 1146, (R)-2-(4-(2-chloro-3-(2,3-dihydrobenzo[b][1,4]dioxin-6-yl)benzyloxy)-2-(3-cyanobenzyloxy)benzylamino)-3-hydroxypropanoic acid]	0.6 to 10
N#Cc1cccc(COc2cc(OCc3cccc(-c4ccc5c(c4)OCCO5)c3Cl)ccc2CNC[C@@H](O)CC(=O)O)c1 [Example 1147, (S)-4-(4-(2-chloro-3-(2,3-dihydrobenzo[b][1,4]dioxin-6-yl)benzyloxy)-2-(3-cyanobenzyloxy)benzylamino)-3-hydroxybutanoic acid]	0.6 to 10
C[C@](CO)(NCc1ccc(OCc2cccc(-c3ccc4c(c3)OCCO4)c2Cl)cc1OCc1cccc(C#N)c1)C(=O)O [Example 1148, (R)-2-(4-(2-chloro-3-(2,3-dihydrobenzo[b][1,4]dioxin-6-yl)benzyloxy)-2-(3-cyanobenzyloxy)benzylamino)-3-hydroxy-2-methylpropanoic acid]	0.6 to 10
C[C@@](CO)(NCc1ccc(OCc2cccc(-c3ccc4c(c3)OCCO4)c2Cl)cc1OCc1cccc(C#N)c1)C(=O)O [Example 1149, (S)-2-(4-(2-chloro-3-(2,3-dihydrobenzo[b][1,4]dioxin-6-yl)benzyloxy)-2-(3-cyanobenzyloxy)benzylamino)-3-hydroxy-2-methylpropanoic acid]	0.6 to 10
CC(=O)NCCNCc1ccc(OCc2cccc(-c3ccc4c(c3)OCCO4)c2Cl)cc1OCc1cccc(C#N)c1 [Example 1150, N-(2-(4-(2-chloro-3-(2,3-dihydrobenzo[b][1,4]dioxin-6-yl)benzyloxy)-2-(3-cyanobenzyloxy)benzylamino)ethyl)acetamide]	10 to 100
Cc1cc(CNCCO)c(OCc2cncc(C#N)c2)cc1OCc1cccc(-c2ccc3c(c2)OCCO3)c1Cl [Example 1151, 5-((5-(2-chloro-3-(2,3-dihydrobenzo[b][1,4]dioxin-6-yl)benzyloxy)-2-((2-hydroxyethylamino)methyl)-4-methylphenoxy)methyl)nicotinonitrile]	0.6 to 10
Cc1cc(CN2CCCC[C@H]2C(=O)O)c(OCc2cncc(C#N)c2)cc1OCc1cccc(-c2ccc3c(c2)OCCO3)c1Cl [Example 1152, (S)-1-(4-(2-chloro-3-(2,3-dihydrobenzo[b][1,4]dioxin-6-yl)benzyloxy)-2-((5-cyanopyridin-3-yl)methoxy)-5-methylbenzyl)piperidine-2-carboxylic acid]	0.6 to 10

Next, values leading:

IC50 [nM]	Compound
0.6 to 10	Cc1c(COc2ccc(CN[C@@H](C(=O)O)[C@@H](C)O)c(OCc3cccc(C#N)c3)c2)cccc1-c1ccc2c(c1)OCCO2 [Example 1125, (2R,3R)-2-((2-((3-cyanobenzyl)oxy)-4-((3-(2,3-dihydrobenzo[b][1,4]dioxin-6-yl)-2-methylbenzyl)oxy)benzyl)amino)-3-hydroxybutanoic acid]
0.6 to 10	Cc1c(COc2ccc(CN[C@H](CO)CC(=O)O)c(OCc3cccc(C#N)c3)c2)cccc1-c1ccc2c(c1)OCCO2 [Example 1126, (S)-3-((2-((3-cyanobenzyl)oxy)-4-((3-(2,3-dihydrobenzo[b][1,4]dioxin-6-yl)-2-methylbenzyl)oxy)benzyl)amino)-4-hydroxybutanoic acid]
0.6 to 10	Cc1c(COc2ccc(CN[C@](C)(CO)C(=O)O)c(OCc3cccc(C#N)c3)c2)cccc1-c1ccc2c(c1)OCCO2 [Example 1127, (R)-2-((2-((3-cyanobenzyl)oxy)-4-((3-(2,3-dihydrobenzo[b][1,4]dioxin-6-yl)-2-methylbenzyl)oxy)benzyl)amino)-3-hydroxy-2-methylpropanoic acid]
0.6 to 10	Cc1c(COc2ccc(CN[C@@](C)(CO)C(=O)O)c(OCc3cccc(C#N)c3)c2)cccc1-c1ccc2c(c1)OCCO2 [Example 1128, (S)-2-((2-((3-cyanobenzyl)oxy)-4-((3-(2,3-dihydrobenzo[b][1,4]dioxin-6-yl)-2-methylbenzyl)oxy)benzyl)amino)-3-hydroxy-2-methylpropanoic acid]
0.6 to 10	Cc1c(COc2ccc(CN[C@@H](CO)CC(=O)O)c(OCc3cccc(C#N)c3)c2)cccc1-c1ccc2c(c1)OCCO2 [Example 1129, (R)-3-((2-((3-cyanobenzyl)oxy)-4-((3-(2,3-dihydrobenzo[b][1,4]dioxin-6-yl)-2-methylbenzyl)oxy)benzyl)amino)-4-hydroxybutanoic acid]
0.6 to 10	Cc1c(COc2ccc(CN[C@](C)(CO)C(=O)O)c(OCc3cc(C#N)ccn3)c2)cccc1-c1ccc2c(c1)OCCO2 [Example 1131, (R)-2-(2-((4-cyanopyridin-2-yl)methoxy)-4-(3-(2,3-dihydrobenzo[b][1,4]dioxin-6-yl)-2-methylbenzyloxy)benzylamino)-3-hydroxy-2-methylpropanoic acid]
0.6 to 10	COc1cc(OCc2cccc(-c3ccccc3)c2C)cc(OCc2cccc(C#N)c2)c1CNC[C@@H](O)CC(=O)O [Example 1133, (S)-4-((2-((3-cyanobenzyl)oxy)-6-methoxy-4-((2-methyl-[1,1′-biphenyl]-3-yl)methoxy)benzyl)amino)-3-hydroxybutanoic acid]
0.6 to 10	COc1cc(OCc2cccc(-c3ccccc3)c2C)cc(OCc2cccc(C#N)c2)c1CN[C@H](CO)C(=O)O [Example 1134, (R)-2-((2-((3-cyanobenzyl)oxy)-6-methoxy-4-((2-methyl-[1,1′-biphenyl]-3-yl)methoxy)benzyl)amino)-3-hydroxypropanoic acid]
0.6 to 10	COc1cc(OCc2cccc(-c3ccccc3)c2C)cc(OCc2cccc(C#N)c2)c1CN[C@@H](C(=O)O)[C@H](C)O [Example 1135, (2R,3S)-2-((2-((3-cyanobenzyl)oxy)-6-methoxy-4-((2-methyl-[1,1′-biphenyl]-3-yl)methoxy)benzyl)amino)-3-hydroxybutanoic acid]
0.6 to 10	COc1cc(OCc2cccc(-c3ccccc3)c2C)cc(OCc2cccc(C#N)c2)c1CN[C@H](C(=O)O)[C@H](C)O [Example 1136, (2S,3S)-2-((2-((3-cyanobenzyl)oxy)-6-methoxy-4-((2-methyl-[1,1′-biphenyl]-3-yl)methoxy)benzyl)amino)-3-hydroxybutanoic acid]
0.6 to 10	COc1cc(OCc2cccc(-c3ccccc3)c2C)cc(OCc2cccc(C#N)c2)c1CNC(C)(CO)C(=O)O (stereo not shown) [Example 1137, 2-((2-((3-cyanobenzyl)oxy)-6-methoxy-4-((2-methyl-[1,1′-biphenyl]-3-yl)methoxy)benzyl)amino)-3-hydroxy-2-methylpropanoic acid]
0.6 to 10	COc1cc(OCc2cccc(-c3ccc4c(c3)OCCO4)c2C)cc(OCc2cccc(C#N)c2)c1CN[C@H](CO)C(=O)O [Example 1139, (R)-2-((2-((3-cyanobenzyl)oxy)-4-((3-(2,3-dihydrobenzo[b][1,4]dioxin-6-yl)-2-methylbenzyl)oxy)-6-methoxybenzyl)amino)-3-hydroxypropanoic acid]
0.6 to 10	COc1cc(OCc2cccc(-c3ccc4c(c3)OCCO4)c2C)cc(OCc2cccc(C#N)c2)c1CNC[C@@H](O)CC(=O)O [Example 1140, (S)-4-((2-((3-cyanobenzyl)oxy)-4-((3-(2,3-dihydrobenzo[b][1,4]dioxin-6-yl)-2-methylbenzyl)oxy)-6-methoxybenzyl)amino)-3-hydroxybutanoic acid]
0.6 to 10	COc1cc(OCc2cccc(-c3ccc4c(c3)OCCO4)c2C)cc(OCc2cccc(C#N)c2)c1CN[C@@H](CO)C(=O)O [Example 1141, (S)-2-((2-((3-cyanobenzyl)oxy)-4-((3-(2,3-dihydrobenzo[b][1,4]dioxin-6-yl)-2-methylbenzyl)oxy)-6-methoxybenzyl)amino)-3-hydroxypropanoic acid]
0.6 to 10	COc1cc(OCc2cccc(-c3ccc4c(c3)OCCO4)c2C)cc(OCc2cccc(C#N)c2)c1CN[C@@](C)(CO)C(=O)O [Example 1142, (S)-2-((2-((3-cyanobenzyl)oxy)-4-((3-(2,3-dihydrobenzo[b][1,4]dioxin-6-yl)-2-methylbenzyl)oxy)-6-methoxybenzyl)amino)-3-hydroxy-2-methylpropanoic acid]
